Reference: paper PMC8065335, “An integrative drug repositioning framework discovered a potential therapeutic agent targeting COVID-19” (Signal Transduction and Targeted Therapy, 2021)
pEC50, pKd: −log10 of the molar value. Read-outs that look alike come from different tables or passages of the source.

What was measured:
SARS-CoV-2 [1] = test: inhibitor combination assay in Vero E6 cells; type: cell-based
Protocol: The cytotoxicity of the tested drugs on Vero E6 cells was determined by the CCK8 assays (Beyotime, China). At 48 h post addition of the tested drugs, 20 μL CCK8 was added to each well and incubated at 37 °C for 1 h. Then optical density was measured at 450 nm. The 50% cytotoxic concentration (CC50) values were calculated using GraphPad Prism 5 (GraphPad Software, USA). Vero E6 cells were seeded into 96-well plates with a density of 5 × 10^4 cells/well for incubation in DMEM medium supplemented with 10% FBS for 16 h in an incubator with 5% CO2 at 37 °C, for cells to reach 80% confluent. Then, cell culture medium of each well was removed, and PBS was used to wash the cells once, before evaluating the antiviral efficacy of the tested drugs. Four duplicated wells were made for each dose of drugs, and the cells were pretreated with different doses of antiviral drugs diluted by the cell maintenance solution (50 μL per well) for 1 h. For the virus control and cell control wells, cell medium containing DMSO or only medium of 50 μL per well was added. Next, pretreated or untreated cells in each well were infected with the virus with a multiplicity of infection (MOI) of 0.05 for 2 h. […] Then culture supernatant per well was harvested and inactivated at 56 °C for 30 min to further extract and quantify viral RNA. […]

SARS-CoV-2 [2] = test: in vitro anti-SARS-CoV-2 virus infection assay in Vero E6 cells, viral yield in supernatant by qRT-PCR; type: cell-based
IL-10 = test: LPS-induced IL-10 production in PBMCs (ELISA); type: cell-based, human; details: for LPS-induced expression of IL-10: 3 μM
Protocol: (§1) Peripheral blood mononuclear cells (Allcells) were cultured at 37 °C at concentration 5% CO2 atmospheric on a 96-well plate in RPMI1640 cell growth medium (Gibico, Cat. 11875-093). For stimulation, PBMC cells were incubated with 1 μg/mL LPS (Sigma, Cat. L2880-25MG). To test whether CVL218 and olaparib can inhibit the production of IL-6, IL-10, IFN-γ, TNF-α, 1 μM and 3 μM concentrations of CVL218 or olaparib were added to cell culture medium for 6 and 24 h, respectively. The concentration of each cytokine was determined by ELISA using a commercial kit (BioLegend, USA).

IL-6 = test: LPS-induced IL-6 production in PBMCs (ELISA); type: cell-based, human
Protocol: as §1

IFN-γ = test: LPS-induced IFN-γ production in PBMCs (ELISA); type: cell-based, human; details: both 3 μM and 1 μM; 6 h and 24 h
Protocol: as §1

[3] = biological target: nucleocapsid (N) protein of SARS-CoV-2 (SARS-CoV-2-N) (Severe acute respiratory syndrome coronavirus 2, UniProt P0DTC9); type: binding; details: for pKd: read-out: dissociation constant (KD)
TNF-α = test: LPS-induced TNF-α production in PBMCs (ELISA); type: cell-based, human; details: both 3 μM and 1 μM; 6 h and 24 h
Protocol: as §1

[4] = 28-day toxicity and toxicokinetic study in cynomolgus monkeys; type: in vivo; details: for AUC0−24: dose not given
Protocol: Healthy male and female cynomolgus monkeys aged 3–4 years were purchased from Guangdong Landau Biotechnology, China. The animals were maintained in accordance with the Guide for the Care and Use of Laboratory Animals.
Cynomolgus monkey (5/sex/group) were selected using a computerized randomization procedure, and administered CVL218 by nasogastric feeding at dose levels of 0 (control), 5, 20, 80 mg/kg. Individual dose volumes were adjusted weekly based on body weight of monkeys. The monkeys were observed twice daily for viability/mortality and for any change in behavior, reaction to treatment or ill-health. Electrocardiograms, intraocular pressure, rectal temperature and body weight were recorded. For all the groups, […] of the animals were randomly selected and euthanized at day 28. The remaining animals were euthanized after a 28-day drug free period. Blood samples were taken before and at 0.5, 1, 2, 4, 8, and 24 h post-dose on days 1 and 28 of the treatment period. Pharmacokinetic evaluation was performed using a noncompartmental method (Phoenix, version 1.3, USA) and pharmacokinetic parameters were calculated for individual monkeys.

SARS-CoV-2 [5] = test: indirect immunofluorescence / RT-PCR of virus nucleoprotein expression in infected Vero E6 cells; type: cell-based
[6] = four-week toxicity and toxicokinetic study in rats; type: in vivo, Sprague-Dawley rats; details: for AUC0−24: dose not given
Protocol: Sprague-Dawley rats were purchased from Shanghai Laboratory Animal Center, China. The animals were grouped and housed in wire cages with no more than six per cage, under good laboratory conditions (temperature 25 ± 2 °C; relative humidity 50 ± 20%) and with dark and light cycle (12 h/12 h). Only healthy animals were used for experimental purpose. The pharmacokinetics and biodistribution study in Sprague-Dawley rats was approved by Center for Drug Safety Evaluation and Research, Shanghai Institute of Materia Medica, Chinese Academy of Sciences. A total of 144 Sprague-Dawley rats with each sex were used for toxicity study. Animals were randomly separated into four groups (18/sex/group). CVL218 was administered at doses of 20, 40, 60, and 160 mg/kg. For all the groups, 20 rats (10/sex/group) were randomly selected and euthanized at day 28, and their sections of various tissues and organs were obtained and frozen. Ten (5/sex/group) animals were euthanized after a 28-day drug free period, and their sections of tissues and organs were obtained and frozen. Six (3/sex/group) were euthanized after the blood samples were obtained. For pharmacokinetic and toxicity evaluation, clinical symptoms, mortality and the animals’ body weight were examined. Serum (0.5 mL) was collected to analyze toxicokinetics at different timepoints post drug administration. The plasma concentration-time data were analyzed using a noncompartmental method (Phoenix, version 1.3, USA) to derive the pharmacokinetic parameters.

[7] = Phase I clinical trial, ascending dose studies; type: in vivo, human; details: doses as high as 1000 mg QD and 500 mg BID; preliminary Phase I data
[8] = biodistribution (tissue distribution) study in rats; type: in vivo, Sprague-Dawley rats; details: 20 mg/kg oral, 180 min time point
Vero E6 cells = details: CCK8, 48 h
[9] = parameters: method as in earlier work; details: rats, 54 mg/kg oral; cited from earlier work
SARS-CoV-2 [10] = test: time-of-addition assay (full-time, entry, post-entry) in Vero E6 cells; type: cell-based; details: Severe acute respiratory syndrome coronavirus 2, Vero C1008, 14 h
[11] = parameters: method as in https://www.ema.europa.eu/en/medicines/human/EPAR/rubraca; details: ref https://www.ema.europa.eu/en/medicines/human/EPAR/rubraca; cited from earlier work
[12] = monkeys, nasogastric, daily for 28 days
[13] = rats, oral gavage once a day for 28 days
[14] = Severe acute respiratory syndrome coronavirus 2, Vero C1008, read-out: % Inhibition of SARS-CoV-2 replication

## NC(=O)c1nc(F)c[nH]c1=O [favipiravir, reference compound]
SARS-CoV-2 [1]; favipiravir alone at 30 μM
  inhibition rate against SARS-CoV-2 replication: no inhibitory activity

## O=C(c1cc(Cc2n[nH]c(=O)c3ccccc23)ccc1F)N1CCN(C(=O)C2CC2)CC1 [olaparib, reference compound]
SARS-CoV-2 [2]; Severe acute respiratory syndrome coronavirus 2, Vero C1008, 3.2 μM, Vero E6, MOI 0.05, qRT-PCR, preliminary test, read-out: % Inhibition of SARS-CoV-2 replication
  inhibition at 3.2 µM: 15.3%
IL-10; both 3 μM and 1 μM
  LPS-induced stimulation of IL-10: no significant inhibition
IL-6; both 3 μM and 1 μM
  LPS-induced stimulation of IL-6: no significant inhibition
IFN-γ
  LPS-induced concentration of IFN-γ: no significant inhibition
[3]; SPR, immobilized SARS-CoV-2-N
  dissociation constant (KD): no binding signal
TNF-α
  LPS-induced concentration of TNF-α: no significant inhibition

## CNCc1ccc(-c2cc3cc(F)cc(C(N)=O)c3o2)cc1 [CVL218]
[4]; female monkeys, day 1
  AUC0−24: 19466 ng·h/mL
[4]; female monkeys, day 28
  AUC0−24: 18774 ng·h/mL
[4]; male monkeys, day 1
  AUC0−24: 16924 ng·h/mL
[4]; male monkeys, day 28
  AUC0−24: 22912 ng·h/mL
[4]; monkeys, 5, 20 or 80 mg/kg
  accumulation after consecutive 28 days of drug administration: not apparent
  increase of exposure (AUC0−24) with dose: approximately dose proportional
[4]; monkeys, high-dose (80 mg/kg) group, reversed after 28-day recovery
  body weight: slight decrease
[4]; [12]
  maximum tolerable dose (MTD): 80 mg/kg
  no-observed adverse effect level (NOAEL): 5 mg/kg
SARS-CoV-2 [1]; CVL218 alone at 3.5 μM
  inhibition rate against SARS-CoV-2 replication: 36%
SARS-CoV-2 [2]; 3 μM, Vero E6, MOI 0.05, qRT-PCR, preliminary test
  % Inhibition of SARS-CoV-2 replication: 34.64%
SARS-CoV-2 [2]; Vero E6, MOI 0.05, 48 h, read-out: EC50 against SARS-CoV-2 replication
  pEC50: 5.28
IL-10; after 6 h
  LPS-induced expression of IL-10: not downregulated
IL-10; after 24 h, p < 0.001
  LPS-induced expression of IL-10: dramatically reduced
IL-6; 3 μM, after both 6 h and 24 h incubation, p < 0.01
  LPS-induced production of IL-6: significantly repressed
SARS-CoV-2 [5]; 25 μM
  cytopathic effect in the infected cells: no obvious cytopathic effect
SARS-CoV-2 [5]; RT-PCR, 5, 15, 25 μM, 48 h post infection
  expression level of N gene compared to DMSO: Lower expression level
SARS-CoV-2 [5]; immunofluorescence microscopy, 5, 15, 25 μM, dose-response
  virus nucleoprotein (NP) expression compared to DMSO treated cells: significantly lower
[6]; female rats, day 1
  AUC0−24: 7605 ng·h/mL
[6]; female rats, day 28
  AUC0−24: 6657 ng·h/mL
[6]; male rats, day 1
  AUC0−24: 9102 ng·h/mL
[6]; male rats, day 28
  AUC0−24: 10253 ng·h/mL
[6]; rats, 20/60/160 mg/kg oral, 28 days + 28 days recovery
  body weight versus control groups: no significant difference
[6]; [13]
  maximum tolerable dose (MTD): 160 mg/kg
  no-observed adverse effect level (NOAEL): 20 mg/kg
[6]; rats, repeated dose
  signs of toxicity after 28-day treatment period: no apparent sign of toxicity
IFN-γ
  LPS-induced concentration of IFN-γ: significant decrease
[7]
  adverse events in human: no Grade II and above adverse events
  tolerability in human: well tolerated
[8]
  lung concentration compared to that in plasma: 188 fold
[3]; SPR, immobilized SARS-CoV-2-N
  pKd: 5.51
Vero E6 cells
  CC50: 90.6 µM
TNF-α
  LPS-induced concentration of TNF-α: significant decrease

## CCOC(=O)c1c(CSc2ccccc2)n(C)c2cc(Br)c(O)c(CN(C)C)c12 [arbidol]
[9]
  tissue distribution post administration: mostly distributed in stomach and plasma
SARS-CoV-2 [2]; [14]
  inhibition at 30 µM: 99%
SARS-CoV-2 [2]; Severe acute respiratory syndrome coronavirus 2, Vero C1008, 3 μM, Vero E6, MOI 0.05, qRT-PCR, preliminary test, read-out: % Inhibition of SARS-CoV-2 replication
  inhibition at 3 µM: 21.8%

## CCC(CC)COC(=O)[C@H](C)N[P@](=O)(OC[C@H]1O[C@@](C#N)(c2ccc3c(N)ncnn23)[C@H](O)[C@@H]1O)Oc1ccccc1 [remdesivir]
SARS-CoV-2 [10]; read-out: % Inhibition, Entry
  inhibition at 10 µM: 5.86%
SARS-CoV-2 [10]; read-out: % Inhibition, Full-time
  inhibition at 10 µM: 92.9%
SARS-CoV-2 [10]; read-out: % Inhibition, Post-entry
  inhibition at 10 µM: 91.9%

## CNCc1ccc(-c2[nH]c3cc(F)cc4c3c2CCNC4=O)cc1 [rucaparib]
[11]
  accessibility in the lung tissue: poor accessibility

## CN(C)CC(=O)Nc1ccc2[nH]c(=O)c3ccccc3c2c1.Cl [PJ-34, N-(6-oxo-5,6-dihydrophenanthridin-2-yl)-N, N-dimethylacetamide. HCl]
[3]
  fold lower binding affinity than CVL218: about 22 fold
  pKd: 4.17

## CCOC(=O)C1=C[C@@H](OC(CC)CC)[C@H](NC(C)=O)[C@@H](N)C1 [Oseltamivir]
SARS-CoV-2 [2]; [14]
  inhibition at 3 µM: -13.7%

## CC(=O)N[C@H]1[C@H]([C@H](O)[C@H](O)CO)OC(C(=O)O)=C[C@@H]1N=C(N)N [Zanamivir]
SARS-CoV-2 [2]; [14]
  inhibition at 3 µM: -10.4%
